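Grown in 96-well plates, cells were treated for 48 hours with each compound at five concentrations. Insufficient inhibition: endpoint recorded as highest concentration tested. GI50: concentration for 50% inhibition of growth.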 Activity calls are given as the source filed them. Cut-off read from the data, not from the text of the source: active = GI50 up to about 1.1 µM and inactive = higher.
Columns and labels:
Experiment in all cases: NCI anticancer screen, dose series, 48 h
[1] = system: OVCAR-8
[2] = system: DMS-114
[3] = system: OVCAR-3
[4] = system: SF-268
[5] = system: HL-60
[6] = system: SN12C
[7] = system: MOLT-4
[8] = system: SNB-78
[9] = system: SK-OV-3
[10] = system: UO-31
[11] = system: EKVX
[12] = system: HCC 2998
[13] = system: COLO 205
[14] = system: IGROV-1
[15] = system: HCT-15
[16] = system: ACHN
[17] = system: DLD-1
[18] = system: SK-MEL-28
[19] = system: A549
[20] = system: DMS-273

Structure (SMILES) | GI50 [1] | GI50 [2] | GI50 [3] | GI50 [4] | GI50 [5] | GI50 [6] | GI50 [7] | GI50 [8] | GI50 [9] | GI50 [10] | GI50 [11] | GI50 [12] | GI50 [13] | GI50 [14] | GI50 [15] [µM] | GI50 [16] | GI50 [17] | GI50 [18] | GI50 [19] | GI50 [20]
O=C1CCC2(c3ccccc3)Nc3cc(Cl)ccc3N12 (centres undefined) | 38.6 µM (inactive) | 21.4 µM (inactive) | 21.8 µM (inactive) | 40.8 µM (inactive) | 20.8 µM (inactive) | 35.1 µM (inactive) | 21.6 µM (inactive) | 31.7 µM (inactive) | 43.8 µM (inactive) | 25.5 µM (inactive) | 33.3 µM (inactive) | 42.1 µM (inactive) | 17.7 µM (inactive) | 41.2 µM (inactive) | 35.2 | 26.9 µM (inactive) | 34.9 µM (inactive) | 36.2 µM (inactive) | 31 µM (inactive) | –
CN1CCOC(C(NC(=O)c2ccccc2)c2ccccc2)C1=O (centres undefined) | > 100 µM (inactive) | – | > 100 µM (inactive) | > 100 µM (inactive) | > 100 µM (inactive) | > 100 µM (inactive) | > 100 µM (inactive) | > 100 µM (inactive) | > 100 µM (inactive) | > 100 µM (inactive) | > 100 µM (inactive) | > 100 µM (inactive) | > 100 µM (inactive) | > 100 µM (inactive) | > 100 | > 100 µM (inactive) | > 100 µM (inactive) | > 100 µM (inactive) | > 100 µM (inactive) | > 100 µM (inactive)
CC1(C)Cc2cc(C(=O)O)c3c(c2C1=O)COCC3 | > 100 µM (inactive) | > 100 µM (inactive) | > 100 µM (inactive) | > 100 µM (inactive) | > 100 µM (inactive) | > 100 µM (inactive) | > 100 µM (inactive) | > 100 µM (inactive) | > 100 µM (inactive) | > 100 µM (inactive) | > 100 µM (inactive) | > 100 µM (inactive) | > 100 µM (inactive) | > 100 µM (inactive) | > 100 | > 100 µM (inactive) | > 100 µM (inactive) | – | > 100 µM (inactive) | > 100 µM (inactive)
O=C(NC1CCCCCC1)C1C(=O)N(C2CCCCCC2)C(=O)/C1=N\O (centres undefined) | 38.6 µM (inactive) | 33 µM (inactive) | 17.6 µM (inactive) | 29.1 µM (inactive) | 22.5 µM (inactive) | 34.7 µM (inactive) | 21.5 µM (inactive) | 34.3 µM (inactive) | 38.4 µM (inactive) | 28.4 µM (inactive) | 36.2 µM (inactive) | 19.5 µM (inactive) | 17.3 µM (inactive) | 50 µM (inactive) | 34.4 | 35.2 µM (inactive) | 44.1 µM (inactive) | 30 µM (inactive) | 42.8 µM (inactive) | –
CCOC(=O)C1C(=O)CC(=O)C2CCCCC21 (centres undefined) | > 100 µM (inactive) | > 100 µM (inactive) | > 100 µM (inactive) | > 100 µM (inactive) | > 100 µM (inactive) | > 100 µM (inactive) | > 100 µM (inactive) | > 100 µM (inactive) | > 100 µM (inactive) | > 100 µM (inactive) | > 100 µM (inactive) | – | > 100 µM (inactive) | > 100 µM (inactive) | > 100 | > 100 µM (inactive) | > 100 µM (inactive) | > 100 µM (inactive) | > 100 µM (inactive) | > 100 µM (inactive)
NCP(=O)(O)OCC(=O)O | > 100 µM (inactive) | > 100 µM (inactive) | > 100 µM (inactive) | > 100 µM (inactive) | > 100 µM (inactive) | > 100 µM (inactive) | > 100 µM (inactive) | > 100 µM (inactive) | > 100 µM (inactive) | > 100 µM (inactive) | > 100 µM (inactive) | – | > 100 µM (inactive) | > 100 µM (inactive) | > 100 | > 100 µM (inactive) | > 100 µM (inactive) | > 100 µM (inactive) | > 100 µM (inactive) | > 100 µM (inactive)
ON/N=C/c1cc2c(cc1Br)OCO2 | > 386 µM (inactive) | 251 µM (inactive) | 295 µM (inactive) | 247 µM (inactive) | > 386 µM (inactive) | > 386 µM (inactive) | 383 µM (inactive) | – | > 386 µM (inactive) | – | 176 µM (inactive) | > 386 µM (inactive) | > 386 µM (inactive) | > 386 µM (inactive) | – | > 386 µM (inactive) | > 386 µM (inactive) | > 386 µM (inactive) | > 386 µM (inactive) | > 386 µM (inactive)
CCCC(=O)c1ccc2c(ccc(=O)n2C)c1 | > 100 µM (inactive) | 31.6 µM (inactive) | > 100 µM (inactive) | > 100 µM (inactive) | > 100 µM (inactive) | > 100 µM (inactive) | > 100 µM (inactive) | – | > 100 µM (inactive) | – | 42.2 µM (inactive) | > 100 µM (inactive) | > 100 µM (inactive) | > 100 µM (inactive) | > 100 | – | > 100 µM (inactive) | > 100 µM (inactive) | > 100 µM (inactive) | 66.2 µM (inactive)
N#CC1(C#N)C=CC(=C2OCC3CCCN23)C=C1 (centres undefined) | > 100 µM (inactive) | > 100 µM (inactive) | – | > 100 µM (inactive) | 87.5 µM (inactive) | > 100 µM (inactive) | > 100 µM (inactive) | > 100 µM (inactive) | > 100 µM (inactive) | > 100 µM (inactive) | – | > 100 µM (inactive) | > 100 µM (inactive) | > 100 µM (inactive) | > 100 | > 100 µM (inactive) | > 100 µM (inactive) | – | > 100 µM (inactive) | > 100 µM (inactive)
CN(C(=O)C12C3C4C1C1C2C3C41C#N)C(C)(C)C (centres undefined) | > 100 µM (inactive) | > 100 µM (inactive) | > 100 µM (inactive) | > 100 µM (inactive) | > 100 µM (inactive) | > 100 µM (inactive) | > 100 µM (inactive) | > 100 µM (inactive) | > 100 µM (inactive) | > 100 µM (inactive) | > 100 µM (inactive) | > 100 µM (inactive) | > 100 µM (inactive) | > 100 µM (inactive) | – | > 100 µM (inactive) | > 100 µM (inactive) | > 100 µM (inactive) | > 100 µM (inactive) | > 100 µM (inactive)
COc1ccccc1/C=C1\C(=O)N(C(=O)c2ccc(NC(C)=O)cc2)N=C1C | > 100 µM (inactive) | > 100 µM (inactive) | > 100 µM (inactive) | > 100 µM (inactive) | > 100 µM (inactive) | > 100 µM (inactive) | > 100 µM (inactive) | > 100 µM (inactive) | – | > 100 µM (inactive) | > 100 µM (inactive) | > 100 µM (inactive) | > 100 µM (inactive) | – | > 100 | > 100 µM (inactive) | > 100 µM (inactive) | > 100 µM (inactive) | > 100 µM (inactive) | > 100 µM (inactive)
CC12CC3CC(C)(C1)CC(N=[N+]=[N-])(C3)C2 | > 100 µM (inactive) | > 100 µM (inactive) | > 100 µM (inactive) | > 100 µM (inactive) | – | > 100 µM (inactive) | > 100 µM (inactive) | > 100 µM (inactive) | > 100 µM (inactive) | > 100 µM (inactive) | > 100 µM (inactive) | > 100 µM (inactive) | > 100 µM (inactive) | > 100 µM (inactive) | – | > 100 µM (inactive) | > 100 µM (inactive) | > 100 µM (inactive) | > 100 µM (inactive) | > 100 µM (inactive)
CC(C)(C)c1cc(CCCCCCCC2(CCCCCCCc3cc(C(C)(C)C)cc(C(C)(C)C)c3)OC(COCCOCCCCCC#N)C(COCCOCCCCCC#N)O2)cc(C(C)(C)C)c1 (centres undefined) | > 100 µM (inactive) | > 100 µM (inactive) | > 100 µM (inactive) | > 100 µM (inactive) | > 100 µM (inactive) | > 100 µM (inactive) | – | > 100 µM (inactive) | > 100 µM (inactive) | > 100 µM (inactive) | > 100 µM (inactive) | > 100 µM (inactive) | > 100 µM (inactive) | > 100 µM (inactive) | > 100 | > 100 µM (inactive) | > 100 µM (inactive) | > 100 µM (inactive) | > 100 µM (inactive) | > 100 µM (inactive)
CC1=NN(C(=O)c2ccccc2O)C(=O)/C1=C/c1ccco1 | 2.59 µM (inactive) | 0.604 µM (active) | 0.65 µM (active) | 1.11 µM (active) | 1.49 µM (inactive) | 2.96 µM (inactive) | 1.93 µM (inactive) | 22.6 µM (inactive) | 5.7 µM (inactive) | 0.404 µM (active) | 3.06 µM (inactive) | > 22.8 µM (inactive) | 10.5 µM (inactive) | 1.26 µM (inactive) | 2.22 | 2.26 µM (inactive) | 0.502 µM (active) | 14.6 µM (inactive) | 7.19 µM (inactive) | –
COc1cc(OC)c2c(=O)cc(-c3ccc(OC)c(OC)c3OC)oc2c1 | – | > 100 µM (inactive) | > 100 µM (inactive) | 48.2 µM (inactive) | > 100 µM (inactive) | > 100 µM (inactive) | – | – | > 100 µM (inactive) | – | > 100 µM (inactive) | > 100 µM (inactive) | > 100 µM (inactive) | > 100 µM (inactive) | > 100 | 83.6 µM (inactive) | > 100 µM (inactive) | > 100 µM (inactive) | > 100 µM (inactive) | –
COc1cccc(O)c1-c1cc(=O)c2c(O)c(OC)c(OC)c(OC)c2o1 [SKULLCAPFLAVONE II] | 30.3 µM (inactive) | – | 22.5 µM (inactive) | 35.3 µM (inactive) | 20.4 µM (inactive) | 28 µM (inactive) | 29.2 µM (inactive) | – | 28.4 µM (inactive) | 25.2 µM (inactive) | 32.7 µM (inactive) | 7.59 µM (inactive) | 16.5 µM (inactive) | 24.2 µM (inactive) | 18.5 | 38.9 µM (inactive) | – | 35.8 µM (inactive) | 29 µM (inactive) | –
